Results on 1 substance are retold here after patent publication US20220143060A1, “METHOD FOR TREATING INFECTIOUS DISEASES BY TARGETING NK CELL IMMUNE CHECKPOINT” (priority 2019, published 2022).

In one data set the test system is liver NK cells. Description: in vitro NK function assay: liver NK cells of treated mice co-cultured with target cells Yac-1, flow cytometry (CD107a, granzyme B, IFN-γ). The data set is classed as in vivo, C/O-Tg mice. Particulars: two weeks of treatment with Qa-1 siRNA, vs control siRNA (FIG. 8D).
In another data set the test system is HCV (J399EM). Description: HCV copy number in serum/peripheral blood and liver tissue by qPCR in HCV-infected C/O-Tg mice. The format is in vivo. As to conditions: two weeks of treatment, vs control (FIG. 7B, 8C). On the procedure: This mouse model of HCV infection was first reproduced and confirmed. HCV (J399EM, 1 mL, TCID50=2×10^7) was used for tail vein infusion in C/O-Tg mice and wild-type littermate control mice. […] The above results are consistent with the observation in patients infected with HCV (Fahey S, Dempsey E, Long A. The role of chemokines in acute and chronic hepatitis C infection. Cellular and Molecular Immunology 11, 25 (2014)).
Since CD8+ T cells are generally thought to play an important role in viral infection and clearance, the expression profile of CD8+T immune checkpoint molecules during HCV infection was first tested. […] Based on this, it was tested whether targeting T cell immune checkpoint molecules can inhibit the chronic infection process.
In order to further investigate the therapeutic effect of NKG2A blockade on chronic HCV infection, mice were administered with NKG2A blocking antibodies two weeks after HCV infection. Up-regulation of NKG2A expression has been observed at this stage (FIG. 3C) and administration was lasted for two weeks (FIG. 6A).
In general terms: Quantitative PCR measures a nucleic acid by following its amplification.

The next data set deals with Qa-1. Description: Qa-1 mRNA expression of different cell components in liver tissue after siRNA treatment. The data set is classed as in vivo, C/O-Tg mice. Particulars: tail vein injection, two weeks of treatment, vs control siRNA (FIG. 8B). The text has this: On the other hand, it was investigated whether suppression of the expression of immune checkpoint molecules can promote the elimination of HCV.

Take “cholesterol-conjugated siRNA against Qa-1: cholesterol-conjugated siRNA against Qa-1, sequence GAAGAGGAGGAGACACAUA, synthesized by GenePharma (cholesterol-conjugated, position not given here)”: in the data set with liver NK cells, the “depletion process of NK cells (CD107a and IFN-γ)” value is given as “reversed”. For the same substance, the “HCV replication (copy numbers of virus in serum and liver tissues)” value in the data set on HCV (J399EM) is recorded as “inhibited HCV replication”. Further, the “Qa-1 expression (mRNA) in liver cell components” value in the data set on Qa-1 is recorded as “selectively down-regulated Qa-1 in hepatocytes”.
